This note sets out measurements from ChEMBL document CHEMBL1201862, “PubChem BioAssay data set” (2004).

Values joined by “and” are separate entries in the source; they are usually repeats but may differ in a detail not shown here. Equal entries are not always repeated. Active and inactive are the calls of the source.

The target of assay [1] is Peroxisome proliferator-activated receptor gamma/Nuclear receptor corepressor 2 (Homo sapiens, UniProt P37231+Q9Y618). The assay is described as follows: Counterscreen for NR2E3 inverse agonists: TR-FRET-based biochemical high throughput dose response assay to identify inverse agonists of the interaction between peroxisome proliferator-activated receptor gamma (PPARg) and nuclear receptor co-repressor 2 (NCOR2). The format is functional.

Assay [2] deals with Photoreceptor-specific nuclear receptor (Homo sapiens, UniProt Q9Y5X4). Put plainly: NR2E3 inverse agonists, dose response, biochemical, TR-FRET (AID 463256). The format is functional.
Chain of Photoreceptor-specific nuclear receptor (Q9Y5X4 whole entry): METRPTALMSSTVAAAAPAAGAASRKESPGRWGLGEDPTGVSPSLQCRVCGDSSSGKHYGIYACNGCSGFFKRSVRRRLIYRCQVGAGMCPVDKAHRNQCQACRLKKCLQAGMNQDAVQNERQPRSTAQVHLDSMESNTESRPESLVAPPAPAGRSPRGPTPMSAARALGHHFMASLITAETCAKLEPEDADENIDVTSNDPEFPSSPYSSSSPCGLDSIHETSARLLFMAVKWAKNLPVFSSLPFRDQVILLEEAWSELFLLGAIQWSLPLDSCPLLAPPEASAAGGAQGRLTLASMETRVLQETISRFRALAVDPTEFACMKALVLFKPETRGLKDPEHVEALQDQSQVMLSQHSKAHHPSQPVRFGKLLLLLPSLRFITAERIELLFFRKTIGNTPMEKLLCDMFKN
Assay [3] relates to Vero. The assay is described as follows: West Nile virus antiviral activity, cell-based, CPE readout (AID 1621). The format is functional. Conditions: Chlorocebus sabaeus.
The subject of assay [4] is Vero. Put plainly: host cell cytotoxicity of antiviral hits, dose response, cytotoxicity control for West Nile virus antiviral project, secondary assay (AID 1650). The format is functional. Conditions: Chlorocebus sabaeus.
Assay [5] concerns the target T1, Mucolipin-3 (Homo sapiens, UniProt Q8TDD5).
T1 sequence (Q8TDD5 whole entry): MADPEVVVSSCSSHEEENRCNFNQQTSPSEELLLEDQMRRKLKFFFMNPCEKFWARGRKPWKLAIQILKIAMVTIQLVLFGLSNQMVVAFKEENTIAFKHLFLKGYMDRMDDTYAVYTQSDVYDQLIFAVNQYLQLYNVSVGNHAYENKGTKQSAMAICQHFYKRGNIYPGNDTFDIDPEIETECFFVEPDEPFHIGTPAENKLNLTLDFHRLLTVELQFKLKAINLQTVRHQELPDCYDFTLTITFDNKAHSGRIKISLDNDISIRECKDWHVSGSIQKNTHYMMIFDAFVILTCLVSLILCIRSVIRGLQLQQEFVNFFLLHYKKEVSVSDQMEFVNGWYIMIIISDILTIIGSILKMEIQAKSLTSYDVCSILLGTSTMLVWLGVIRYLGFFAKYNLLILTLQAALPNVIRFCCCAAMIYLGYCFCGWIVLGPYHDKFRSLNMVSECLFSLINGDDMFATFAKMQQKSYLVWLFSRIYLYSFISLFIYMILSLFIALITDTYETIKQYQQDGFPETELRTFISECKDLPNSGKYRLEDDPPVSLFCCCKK
Put plainly: Dose response cell-based high-throughput screening assay for agonists of the transient receptor potential channel ML3 (TRPML3). [Related pubchem assays: 1526, 1424, 1448 ]. The format is functional.

The target of assay [6] is T2, Ion channel NompC (Danio rerio, UniProt Q7T1G6). The assay is described as follows: Fluorescence counterscreen assay for TRPML3 agonists: dose response cell-based high-throughput screening assay to identify agonists of the transient receptor potential channel N1 (TRPN1). [Related pubchem assays: 1526, 1424, 1448 ]. The format is functional.
T2 sequence (Q7T1G6 whole entry): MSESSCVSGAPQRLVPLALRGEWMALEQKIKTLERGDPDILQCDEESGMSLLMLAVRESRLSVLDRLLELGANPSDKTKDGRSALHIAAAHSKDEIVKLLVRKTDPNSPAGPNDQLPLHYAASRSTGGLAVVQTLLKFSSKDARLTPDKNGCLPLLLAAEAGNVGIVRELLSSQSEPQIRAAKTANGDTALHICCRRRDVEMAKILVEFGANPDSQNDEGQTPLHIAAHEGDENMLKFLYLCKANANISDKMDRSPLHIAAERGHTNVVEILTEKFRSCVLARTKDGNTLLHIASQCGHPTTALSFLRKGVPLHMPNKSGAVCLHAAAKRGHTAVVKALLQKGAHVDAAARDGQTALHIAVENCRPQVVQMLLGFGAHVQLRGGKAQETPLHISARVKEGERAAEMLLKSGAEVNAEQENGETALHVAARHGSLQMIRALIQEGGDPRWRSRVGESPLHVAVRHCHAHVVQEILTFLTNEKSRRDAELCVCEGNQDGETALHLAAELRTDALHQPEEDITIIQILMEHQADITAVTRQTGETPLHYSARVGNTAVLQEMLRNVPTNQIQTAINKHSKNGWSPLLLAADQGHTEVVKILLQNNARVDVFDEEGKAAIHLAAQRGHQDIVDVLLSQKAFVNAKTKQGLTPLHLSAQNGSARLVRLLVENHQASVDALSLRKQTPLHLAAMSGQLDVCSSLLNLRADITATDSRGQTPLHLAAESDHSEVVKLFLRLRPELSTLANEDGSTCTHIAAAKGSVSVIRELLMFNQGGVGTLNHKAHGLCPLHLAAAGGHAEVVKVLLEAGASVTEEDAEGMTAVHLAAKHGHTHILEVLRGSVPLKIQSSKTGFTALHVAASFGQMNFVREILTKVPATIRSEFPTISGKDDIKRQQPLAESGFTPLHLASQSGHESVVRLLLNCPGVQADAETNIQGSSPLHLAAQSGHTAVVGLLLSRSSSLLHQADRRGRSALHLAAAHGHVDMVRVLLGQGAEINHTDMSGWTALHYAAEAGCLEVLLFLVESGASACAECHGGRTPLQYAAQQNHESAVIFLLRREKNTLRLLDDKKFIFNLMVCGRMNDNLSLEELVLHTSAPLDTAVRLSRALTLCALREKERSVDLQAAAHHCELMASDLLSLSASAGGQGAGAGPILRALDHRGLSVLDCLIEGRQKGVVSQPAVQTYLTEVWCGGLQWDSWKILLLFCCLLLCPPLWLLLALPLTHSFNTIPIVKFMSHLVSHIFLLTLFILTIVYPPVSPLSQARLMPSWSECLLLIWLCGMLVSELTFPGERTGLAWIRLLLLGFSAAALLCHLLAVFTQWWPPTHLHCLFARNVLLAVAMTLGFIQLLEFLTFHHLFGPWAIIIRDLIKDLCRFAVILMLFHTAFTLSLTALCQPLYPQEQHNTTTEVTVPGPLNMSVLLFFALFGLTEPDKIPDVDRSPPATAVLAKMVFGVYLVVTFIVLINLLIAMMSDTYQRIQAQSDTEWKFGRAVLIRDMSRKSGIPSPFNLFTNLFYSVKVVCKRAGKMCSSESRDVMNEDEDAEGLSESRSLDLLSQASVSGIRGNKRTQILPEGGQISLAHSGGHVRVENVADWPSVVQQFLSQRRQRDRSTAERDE
Assay [7] addresses T2, Ion channel NompC. The assay is described as follows: Late stage counterscreen for the probe development effort to identify selective agonists of the Transient Receptor Potential Channels 3 (TRPML3): fluorescence-based cell-based dose response assay for TRPN1 agonists. The format is functional.
For assay [8], the target named is T1, Mucolipin-3. Put plainly: TRPML3 agonist potency, dose response, cell-based, calcium fluorescence (AID 2510). The format is functional.
Assay [9] is described as follows: SK-MEL-5 parental cell viability reduction, dose response, orthogonal assay for MITF inhibitor project, CellTiter-Glo luminescence, dry powder, set 8 (AID 651586). The format is functional, cell-based.
A short description of assay [10]: TRPM1 promoter luciferase reporter signal decrease, dose response, MITF inhibitor project, cell-based, SK-MEL-5, dry powder, set 9 (AID 651588). The format is functional.
Assay [11] is described as follows: MITF: Counter assay: A375 proliferation Measured in Cell-Based System Using Plate Reader - 2084-03_Inhibitor_Dose_DryPowder_Activity_Set8. The format is functional. Conditions: A-375.
Assay [12] in a line: MALME3 melanoma cell viability reduction, dose response, orthogonal assay for MITF inhibitor project, CellTiter-Glo luminescence, dry powder, set 5 (AID 651584). Conditions: MALME-3. The format is functional, cell-based.
The nature of assay [13]: MITF Orthogonal Assay: SK-MEL-5 CTG Assay Measured in Cell-Based System Using Plate Reader - 2084-02_Inhibitor_Dose_DryPowder_Activity_Set7. The format is functional.
A short description of assay [14]: TRPM1 promoter luciferase reporter signal decrease, dose response, MITF inhibitor project, cell-based, SK-MEL-5, dry powder, set 8 (AID 624430). The format is functional.
Assay [15] can be described thus: MITF Orthogonal Assay: MALME3 CTG Assay Measured in Cell-Based System Using Plate Reader - 2084-04_Inhibitor_Dose_DryPowder_Activity_Set6. The format is functional. Conditions: MALME-3.
A short description of assay [16]: A375 melanoma cell viability loss, dose response, counter-screen for MITF modulator project, CellTiter-Glo luminescence, dry powder, set 9 (AID 651591). Conditions: A-375. The format is functional, cell-based.
In another assay the target is Mu-type opioid receptor (Homo sapiens, UniProt P35372). Put plainly: Counterscreen for agonists of heterodimerization of the mu 1 (OPRM1) and delta 1 (OPRD1) opioid receptors: Luminescence-based cell-based high throughput dose response assay to identify agonists of OPRM1 homodimerization. The format is functional.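 Further: U2OS cells expressing OPRM1 and beta-arrestin as split beta-galactosidase partners.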
Chain of Mu-type opioid receptor (P35372 whole entry): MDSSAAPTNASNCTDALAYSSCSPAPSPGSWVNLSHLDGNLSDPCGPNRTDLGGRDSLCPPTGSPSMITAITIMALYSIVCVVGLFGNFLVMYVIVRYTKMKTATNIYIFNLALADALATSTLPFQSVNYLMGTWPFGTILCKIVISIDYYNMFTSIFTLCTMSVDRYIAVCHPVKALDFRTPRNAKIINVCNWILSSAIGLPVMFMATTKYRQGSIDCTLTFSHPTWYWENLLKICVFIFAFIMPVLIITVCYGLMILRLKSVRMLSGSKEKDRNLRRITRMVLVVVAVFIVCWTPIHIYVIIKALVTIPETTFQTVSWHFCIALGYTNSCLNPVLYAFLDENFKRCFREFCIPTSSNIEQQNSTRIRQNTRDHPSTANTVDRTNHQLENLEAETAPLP
Assay [17] can be described thus: HeLa 2N DNA content increase, dose response, cell-based, IC50 (AID 1117349). The format is functional.
A short description of assay [18]: Concentration-dependent survival of SW480 colon cancer line, luminescence detection with CellTiter-Glo, half-maximal inhibitory concentration (AID 1117338). The format is functional.
The target in assay [19] is 5-hydroxytryptamine receptor 5A (Homo sapiens, UniProt P47898). The assay is described as follows: Counterscreen for agonists of OPRM1-OPRD1 heterodimerization: luminescence-based cell-based high throughput dose response assay to identify agonists of 5-hydroxytryptamine (serotonin) 5A receptor (HTR5A). [Related pubchem assays (depositor defined):AID504326, AID504355, AID504692, AID504904, AID504905]. The format is functional.
Chain of 5-hydroxytryptamine receptor 5A (P47898 whole entry): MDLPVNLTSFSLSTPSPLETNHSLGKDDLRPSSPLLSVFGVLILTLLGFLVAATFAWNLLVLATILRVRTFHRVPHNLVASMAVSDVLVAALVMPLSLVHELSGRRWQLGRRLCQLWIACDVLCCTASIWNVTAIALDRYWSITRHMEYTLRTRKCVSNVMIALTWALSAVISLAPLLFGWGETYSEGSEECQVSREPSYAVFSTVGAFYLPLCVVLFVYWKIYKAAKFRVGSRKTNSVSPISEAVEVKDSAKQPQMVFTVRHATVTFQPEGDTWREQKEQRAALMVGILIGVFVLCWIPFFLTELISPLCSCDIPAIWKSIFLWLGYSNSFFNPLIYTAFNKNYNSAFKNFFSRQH

A short description of assay [20]: cytotoxicity toward HT-29 cells – cell-based, CellTiter-Glo luminescence, IC50, dose response (AID 1117330). The format is functional.
A short description of assay [21]: RKO cell viability reduction, dose response, CellTiter-Glo luminescence (AID 1117322). The format is functional.
For assay [22], the target named is Delta-type opioid receptor (Homo sapiens, UniProt P41143). Put plainly: Counterscreen for agonists of heterodimerization of the mu 1 (OPRM1) and delta 1 (OPRD1) opioid receptors: Luminescence-based cell-based high throughput dose response assay to identify agonists of OPRD1 homodimerization. [Related pubchem assays (depositor defined):AID504326, AID504355, AID504692, AID504904, AID504905]. The format is functional.
Chain of Delta-type opioid receptor (P41143 whole entry): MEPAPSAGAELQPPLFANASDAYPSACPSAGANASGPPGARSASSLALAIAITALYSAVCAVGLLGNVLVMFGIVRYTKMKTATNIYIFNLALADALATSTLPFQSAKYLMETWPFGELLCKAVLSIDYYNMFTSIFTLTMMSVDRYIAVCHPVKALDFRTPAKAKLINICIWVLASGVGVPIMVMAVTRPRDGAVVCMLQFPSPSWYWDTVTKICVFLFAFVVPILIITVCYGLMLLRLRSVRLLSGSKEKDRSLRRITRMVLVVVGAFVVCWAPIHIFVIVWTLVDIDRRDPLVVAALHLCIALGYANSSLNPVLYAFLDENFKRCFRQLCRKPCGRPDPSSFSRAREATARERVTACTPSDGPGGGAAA

The nature of assay [23]: HeLa 4N DNA content increase, dose response, cell-based, IC50 (AID 1117351). The format is functional.
Assay [24] in a line: cytotoxicity toward HCT116 cells – cell-based, CellTiter-Glo luminescence, IC50, dose response (AID 1117332). The format is functional. Conditions: HCT-116.
Assay [25] can be described thus: HCT116 cell viability decrease, GSK3B pretreatment – CellTiter-Glo, IC50, dose response (AID 1117339). Conditions: HCT-116. The format is functional.
Assay [26] in a line: SNU-C1 cell viability reduction, dose response, CellTiter-Glo luminescence (AID 1117323). The format is functional, cell-based.
The nature of assay [27]: CellTiter-Glo luminescent dose response of DLD-1 viability loss (AID 1117352). The format is functional.
Assay [28] in a line: cytotoxicity toward Colo320 cells – cell-based, CellTiter-Glo luminescence, IC50, dose response (AID 1117334). The format is functional. Conditions: COLO 320.
Assay [29] in a line: M. tuberculosis growth inhibition, HTS (AID 449762). The format is functional.
Assay [30] can be described thus: A High Throughput Confirmatory Assay used to Identify Novel Compounds that Inhibit Mycobacterium Tuberculosis in the absence of Glycerol. The format is functional.
The nature of assay [31]: NIH:OVCAR-3 ovarian cancer cell cytotoxicity, dose response, PAX8 inhibitor project, plate reader, dry powder samples (AID 743044). The format is functional, cell-based.
Assay [32] is described as follows: IGROV1 ovarian cancer cell cytotoxicity, dose response, PAX8 inhibitor project, plate reader, dry powder samples (AID 743043). The format is functional, cell-based. Conditions: IGROV-1.
In the next assay the target is Paired box protein Pax-8 (Homo sapiens, UniProt Q06710). Put plainly: inhibitors of PAX8-driven TPO luciferase reporter, dose response, RMG-I cells, cherry-pick (AID 687027).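 Further: luciferase reporter driven by Pax8 target thyroperoxidase promoter measured by SteadyGlo luminescence.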 The format is functional, cell-based.
Chain of Paired box protein Pax-8 (Q06710 whole entry): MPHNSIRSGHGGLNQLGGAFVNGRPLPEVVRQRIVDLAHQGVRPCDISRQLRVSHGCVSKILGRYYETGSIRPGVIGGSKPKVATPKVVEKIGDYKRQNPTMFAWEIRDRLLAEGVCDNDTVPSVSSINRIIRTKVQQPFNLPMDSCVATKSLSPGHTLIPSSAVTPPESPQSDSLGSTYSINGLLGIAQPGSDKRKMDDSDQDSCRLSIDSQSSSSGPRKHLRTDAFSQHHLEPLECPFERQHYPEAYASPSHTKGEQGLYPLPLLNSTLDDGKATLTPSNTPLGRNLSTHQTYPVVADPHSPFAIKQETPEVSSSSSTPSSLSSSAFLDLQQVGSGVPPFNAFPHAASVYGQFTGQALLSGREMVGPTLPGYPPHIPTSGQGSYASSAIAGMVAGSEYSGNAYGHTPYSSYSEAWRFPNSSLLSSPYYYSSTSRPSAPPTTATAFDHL
Assay [33] is described as follows: cytotoxicity in OVCAR8 ovarian cancer cells, dose response, PAX8 project, cell-based, plate reader, dry powder samples (AID 743197). The format is functional. Conditions: OVCAR-8.
Assay [34] can be described thus: P. falciparum Dd2 growth inhibitors, dose response, SYBR Green, dry powder samples, set 9 (AID 1159568). The format is functional, cell-based.

On to `COc1ccc(-c2oc3ncn4nc(Cc5ccccc5)nc4c3c2-c2ccc(OC)cc2)cc1`, for which the IC50 in assay [1] is 6.02 µM (active); in assay [2] it was 7.69 µM (active).
Consider `CC(C)c1cc(C(C)C)c(S(=O)(=O)N2c3ccccc3[C@]3(Br)C[C@H]4C(=O)N[C@@H](Cc5ccccc5)C(=O)N4[C@H]23)c(C(C)C)c1`, for which the IC50 with Vero [3] is 39.9 µM (active). For the same compound, the CC50 with Vero [4] is 13.7 µM (active).
Regarding `Cc1ccc(S(=O)(=O)n2nccc2-c2c(-c3ccccc3)noc2C)cc1`, the EC50 on Mucolipin-3 [5] is 819 nM (active); at Ion channel NompC [6], > 29.9 µM (not active); at Ion channel NompC [7], > 29.9 µM (not active); on Mucolipin-3 [8] it was 1.01 µM (active).
With `O=C1C(Nc2ccc(F)cc2)=C(N2CCCCC2)C(=O)c2ccccc21`, the half-maximal activity concentration (AC50) was 25.8 µM (active) in [9]; 8.63 µM (active) in assay [10]; 57.6 µM (active) in assay [11]; 14.1 µM (active) in assay [12]; 8.64 µM (active) in [13]; 2.24 µM (active) in assay [14]. The AC50 was 14.1 µM (active) in assay [15] and 27.4 µM (active) in assay [16].
For the compound `CCC(COC(=O)c1cc(OC)c(OC)c(OC)c1)(c1ccccc1)N(C)C` (stereo unspecified), the EC50 on Mu-type opioid receptor is > 92.5 µM (inactive); in assay [19], > 92.5 µM (inactive); in [22], > 92.5 µM (inactive) and 65.1 µM (inactive). In addition, the IC50 in assay [17] was > 10 µM (inactive); in assay [18], > 20 µM (inactive); in [20], > 20 µM (inactive); in assay [21], 142 nM (active); in [23], > 10 µM (inactive); in [24], > 20 µM (inactive). For the same compound, the IC50 in [25] was 1.61 µM (active); in assay [26], 2.45 µM (active); in assay [27], > 20 µM (inactive); in [28], > 20 µM (inactive).
Take `CCCOc1cccc(C(=O)NC(=S)Nc2ccc(N3CCN(C)CC3)cc2)c1`: the IC50 in [29] and in assay [30] was > 100 µM (active) in each case.
As for `COc1ccc(CN(C)C[C@H]2OCCCC[C@H](C)Oc3ccc(NC(=O)Nc4ccc(C(F)(F)F)cc4)cc3C(=O)N([C@H](C)CO)C[C@H]2C)cc1`, the AC50 in assay [31] was 26.4 µM (active); in assay [32] it was 54.7 µM (active); at Paired box protein Pax-8 it was 9.16 µM (active); in [33], 59 µM (active).
For `Cc1ccccc1-c1ccc([C@@H]2[C@H](CO)N3CCCCN(S(=O)(=O)Cc4ccccc4)C[C@@H]23)cc1`, in assay [34], the concentration at half-maximal activity (AC50) was 878 nM (active).
